Reference: patent US5043340A, “Derivatives of 4-desacetyl VLB C-3 carboxhydrazide” (Eli Lilly and Company, priority 1990, dated 1991)
Where a name gives a salt, the structure may show the parent alone. Read-outs that look alike come from different tables or passages of the source. One block for each compound: values may come before it.

Columns and labels:
[1] = tested on: experimental malignancies; conditions: in vivo; cited from earlier work
pKa = format: physicochemical; conditions: for pKa (first value) / pKa (second value) / pKa (third value): 66% DMF
[2] = tested on: human leukemic cells (CCRF-CEM cell line); assay: CCRF-CEM Cytotoxicity Assay (72 h, Coulter particle counter); format: cell-based; conditions: 37° C., read-out: IC50 (concentration giving 50% growth inhibition)
Procedure: The CEM cells were grown in RPMI 1640 media (MA Bioproducts) at 37° C. in humidified atmospheric conditions of 95% air and 5% CO2. The cells were grown in static suspension and maintained in log growth phase at a concentration of 3-7×10^5 cells/ml. The cells were dispersed in wells at a concentration of 4.8×10^4 /well. The drug was dissolved in dimethyl sulfoxide and was added at different dilutions to the cluster plates (wells). The cluster plates were incubated at 37° C. for 72 hours. After 72 hours the wells were read using a ZBI Coulter particle counter. Table 3 below gives the results of such testing of several compounds represented by Formula I above. In the table, Column 1 gives the name of the compound and Column 2 gives the IC50 (concentration giving 50% growth inhibition) in μg/ml.

[3] = tested on: P3/UCLA lung adenocarcinoma xenografts; assay: in vivo test against xenografts of P3/UCLA lung adenocarcinoma in female nude mice; conditions: days 2, 5 and 8, 28-day results
Procedure: The compounds were tested in vivo against xenografts of P3/UCLA lung adenocarcinoma in female nude mice. The test was begun by implanting each mouse with 10^7 P3/UCLA tumor cells, subcutaneously. On each of days 2, 5, and 8 after implantation, each mouse was injected with a conjugate or a compound in physiological buffered saline. Control mice were injected with saline only. The doses of conjugate or of vinca intermediate (based on vinca hydrazide content) are indicated below. The size of the tumors induced by implantation was measured on days 14, 21, and 28 after implantation. Each treatment group consisted of five mice.

[4] = tested on: human lung adenocarcinoma cells (P3/UCLA cell line); assay: P3/UCLA - GIEMSA ASSAY (5 days); format: cell-based; conditions: 120 h, 37° C., free compound, read-out: IC50 (concentration giving 50% growth inhibition)
[5] = solvent not given, read-out: pKa (first value)
[6] = 66% dmf, read-out: pKa (second value)
[7] = 66% dmf, read-out: pKa (first value)
[8] = 66% dmf, read-out: pKa (third value)
[9] = 1.00 mg/kg (based on vinca hydrazide content)
[10] = 2.00 mg/kg (based on vinca hydrazide content)

Compound: CCC1(O)CN2CCc3c([nH]c4ccccc34)C(C(=O)OC)(c3cc4c(cc3OC)N(C)C3C(O)(C(=O)OC)CC5(CC)C=CCN6CCC43C65)CC(C2)C1O (centres unmarked) [4-desacetoxy-3'-hydroxyvinblastine]
found active in the treatment of experimental malignancies in animals [1]: active

Compound: CCC1(O)CC2CN(CCc3c([nH]c4ccccc34)C(C(=O)OC)(c3cc4c(cc3OC)N(C)C3C(O)(C(=O)OC)CC5(CC)C=CCN6CCC43C65)C2)C1 (centres unmarked) [4-desacetoxyvinblastine]
found active in the treatment of experimental malignancies in animals [1]: active

pKa (pKa; [5]): 7.1
Compound: CC(=O)CCCC(=O)NCCC(=O)O [6-[(2-Carboxyethyl)amino]-2,6-dioxohexane]

Compound: CCC1(O)CC2CN(CCc3c([nH]c4ccccc34)C(C(=O)OC)(c3cc4c(cc3OC)N(C)C3C(O)(C(=O)NN=C(C)CCCC(=O)O)C(O)C5(CC)C=CCN6CCC43C65)C2)C1 (centres unmarked) [Example 2, 4-Desacetyl VLB C-3 N^2-(4-carboxy-1-methylbutylidene)carboxhydrazide]
pKa (first value) (pKa): 5.1 | pKa (second value) (pKa): 6.6 | pKa (third value) (pKa): 7.7

Compound: CCC1(O)CC2CN(CCc3c([nH]c4ccccc34)C(C(=O)OC)(c3cc4c(cc3OC)N(C)C3C(O)(C(=O)NN=C(C)CCCCC(=O)O)C(O)C5(CC)C=CCN6CCC43C65)C2)C1 (centres unmarked) [Example 4, 4-Desacetyl VLB C-3 N^2-(5-carboxy-1-methylpentylidene)carboxhydrazide]
pKa (first value) (pKa): 5.3 | pKa (third value) (pKa): 8.1 | pKa (pKa; [6]): 7

Compound: CCC1(O)CC2CN(CCc3c([nH]c4ccccc34)C(C(=O)OC)(c3cc4c(cc3OC)N(C)C3C(O)(C(=O)NN=C(C)CCCCC(=O)O)C(O)C5(CC)C=CCN6CCC43C65)C2)C1 (centres unmarked) [Example 5, 4-Desacetyl VLB C-3 N^2-(5-carboxy-1-methylpentylidene)carboxhydrazidesulfate salt]
IC50 [2]: 0.2 µg/mL

Compound: CCC1(O)CC2CN(CCc3c([nH]c4ccccc34)C(C(=O)OC)(c3cc4c(cc3OC)N(C)C3C(O)(C(=O)NN=C(C)CCCC(=O)NCCC(=O)O)C(O)C5(CC)C=CCN6CCC43C65)C2)C1 (centres unmarked) [Example 6, 4-Desacetyl VLB C-3 N^2-(5-[(2-carboxyethyl)amino]-1-methyl-5-oxopentylidene)carboxhydrazide]
pKa (pKa; [7]): 5.1 | pKa (pKa; [6]): 6.6 | pKa (pKa; [8]): 7.3

Compound: CCC1(O)CC2CN(CCc3c([nH]c4ccccc34)C(C(=O)OC)(c3cc4c(cc3OC)N(C)C3C(O)(C(=O)NN=C(C)CCCC(=O)NCCC(=O)O)C(O)C5(CC)C=CCN6CCC43C65)C2)C1 (centres unmarked) [Example 7, 4-Desacetyl VLB C-3 N^2-(5-[(2-carboxyethyl)amino]-1-methyl-5-oxopentylidene)carboxhydrazide sulfate salt]
IC50 [2]: 0.095 µg/mL

Compound: CCC1(O)CC2CN(CCc3c([nH]c4ccccc34)C(C(=O)OC)(c3cc4c(cc3OC)N(C)C3C(O)(C(=O)NN=C(C)CCCCC(=O)NCCC(=O)O)C(O)C5(CC)C=CCN6CCC43C65)C2)C1 (centres unmarked) [Example 8, 4-Desacetyl VLB C-3 N^2-(6-[(2-carboxyethyl)amino]-1-methyl-6-oxohexylidene)carboxhydrazide]
pKa (pKa; [7]): 5 | pKa (pKa; [6]): 6.2 | pKa (pKa; [8]): 7.8

Compound: CCC1(O)CC2CN(CCc3c([nH]c4ccccc34)C(C(=O)OC)(c3cc4c(cc3OC)N(C)C3C(O)(C(=O)NN=C(C)CCCCC(=O)NCCC(=O)O)C(O)C5(CC)C=CCN6CCC43C65)C2)C1 (centres unmarked) [Example 9, 4-Desacetyl VLB C-3 N^2-(6-[(2-carboxyethyl)amino]-1-methyl-6-oxohexylidene)carboxhydrazide sulfate salt]
IC50 [2]: 0.068 µg/mL | % Inhibition [3, 9]: 43% | % Inhibition [3, 10]: 35% | IC50 [4]: 0.043 µg/mL

Compound: CCC1(O)CC2CN(CCc3c([nH]c4ccccc34)C(C(=O)OC)(c3cc4c(cc3OC)N(C)C3C(O)(C(=O)NNC(C)CCC(=O)O)C(O)C5(CC)C=CCN6CCC43C65)C2)C1 (centres unmarked) [Example 10, 4-Desacetyl VLB C-3 N^2-(3-carboxy-1-methylpropyl)carboxhydrazide]
pKa (first value) (pKa): 5.3 | pKa (second value) (pKa): 6.9 | pKa (third value) (pKa): 7.9

Compound: CCC1(O)CC2CN(CCc3c([nH]c4ccccc34)C(C(=O)OC)(c3cc4c(cc3OC)N(C)C3C(O)(C(=O)NNC(C)CCC(=O)O)C(O)C5(CC)C=CCN6CCC43C65)C2)C1 (centres unmarked) [Example 11, 4-Desacetyl VLB C-3 N^2-(3-carboxy-1-methylpropyl)carboxhydrazide sulfate salt]
IC50 [2]: 0.1 µg/mL

Compound: CCC1(O)CC2CN(CCc3c([nH]c4ccccc34)C(C(=O)OC)(c3cc4c(cc3OC)N(C)C3C(O)(C(=O)NNC(C)CCCCC(=O)O)C(O)C5(CC)C=CCN6CCC43C65)C2)C1 (centres unmarked) [Example 13, 4-Desacetyl VLB C-3 N^2-(5-carboxy-1-methylpentyl)carboxhydrazide sulfate salt]
IC50 [2]: 0.4 µg/mL

Compound: CCC1(O)CC2CN(CCc3c([nH]c4ccccc34)C(C(=O)OC)(c3cc4c(cc3OC)N(C)C3C(O)(C(=O)NNC(C)CCCC(=O)NCCC(=O)O)C(O)C5(CC)C=CCN6CCC43C65)C2)C1 (centres unmarked) [Example 14, 4-Desacetyl VLB C-3 N^2-(5-[(2-carboxyethyl)amino]-1-methyl-5-oxopentyl)carboxhydrazide]
pKa (pKa; [7]): 5.7 | pKa (pKa; [6]): 6.7 | pKa (pKa; [8]): 7.9

Compound: CCC1(O)CC2CN(CCc3c([nH]c4ccccc34)C(C(=O)OC)(c3cc4c(cc3OC)N(C)C3C(O)(C(=O)NNC(C)CCCC(=O)NCCC(=O)O)C(O)C5(CC)C=CCN6CCC43C65)C2)C1 (centres unmarked) [Example 15, 4-Desacetyl VLB C-3 N^2-(5-[(2-carboxyethyl)amino]1-methyl-5-oxopentyl)carboxhydrazide sulfate salt]
IC50 [2]: 0.046 µg/mL

Compound: CCC1(O)CC2CN(CCc3c([nH]c4ccccc34)C(C(=O)OC)(c3cc4c(cc3OC)N(C)C3C(O)(C(=O)NNC(C)CCCCC(=O)NCCC(=O)O)C(O)C5(CC)C=CCN6CCC43C65)C2)C1 (centres unmarked) [Example 17, 4-Desacetyl VLB C-3 N^2-(6-[(2-carboxyethyl)amino]-1-methyl-6-oxohexyl)carboxhydrazide sulfate salt]
IC50 [2]: 0.039 µg/mL | % Inhibition [3, 9]: 20% | % Inhibition [3, 10]: 39% | IC50 [4]: 0.217 µg/mL

Compound: CCC1(O)CC2CN(CCc3c([nH]c4ccccc34)C(C(=O)OC)(c3cc4c(cc3OC)N(C)C3C(O)(C(=O)NNC(C)CCCCC(=O)NCCC(=O)OC)C(O)C5(CC)C=CCN6CCC43C65)C2)C1 (centres unmarked) [Example 30, 4-Desacetyl VLB C-3 N^2-(6-[(3-methoxy-3-oxopropyl)amino]-1-methyl-6-oxohexyl)carboxhydrazide]
pKa (pKa; [5]): 5.4 | pKa (pKa; solvent not given, read-out: pKa (second value)): 7.5

Compound: CC[C@]1(O)C[C@@H]2CN(CCc3c([nH]c4ccccc34)[C@@](C(=O)OC)(c3cc4c(cc3OC)N(C)[C@H]3[C@@](O)(C(=O)OC)[C@H](OC(C)=O)[C@]5(CC)C=CCN6CC[C@]43[C@@H]65)C2)C1 [VLB, vincaleukoblastine]
found active in the treatment of experimental malignancies in animals [1]: active

Compound: CCC1CC2CN(CCc3c([nH]c4ccccc34)C(C(=O)OC)(c3cc4c(cc3OC)N(C)C3C(O)(C(=O)OC)C(OC(C)=O)C5(CC)C=CCN6CCC43C65)C2)C1 (centres unmarked) [deoxy VLB "A"]
found active in the treatment of experimental malignancies in animals [1]: active

Compound: CCC1(O)CN2CCc3c([nH]c4ccccc34)C(C(=O)OC)(c3cc4c(cc3OC)N(C)C3C(O)(C(=O)OC)C(OC(C)=O)C5(CC)C=CCN6CCC43C65)CC(O)(C2)C1 (centres unmarked) [leurocolombine]
found active in the treatment of experimental malignancies in animals [1]: active

Compound: CC[C@]12CN3CCc4c([nH]c5ccccc45)[C@@](C(=O)OC)(c4cc5c(cc4OC)N(C=O)[C@H]4[C@@](O)(C(=O)OC)[C@H](OC(C)=O)[C@]6(CC)C=CCN7CC[C@]54[C@@H]76)C[C@@H](C3)[C@H]1O2 [leuroformine]
found active in the treatment of experimental malignancies in animals [1]: active

Compound: CC[C@]12CN3CCc4c([nH]c5ccccc45)[C@@](C(=O)OC)(c4cc5c(cc4OC)N(C)[C@H]4[C@@](O)(C(=O)OC)[C@H](OC(C)=O)[C@]6(CC)C=CCN7CC[C@]54[C@@H]76)C[C@H](C3)[C@H]1O2 [leurosine]
found active in the treatment of experimental malignancies in animals [1]: active

Compound: CCC1(O)CN2CCc3c([nH]c4ccccc34)C(C(=O)OC)(c3cc4c(cc3OC)N(C)C3C(O)(C(=O)OC)C(OC(C)=O)C5(CC)C=CCN6CCC43C65)CC(C2)C1O (centres unmarked) [vincadioline]
found active in the treatment of experimental malignancies in animals [1]: active

Compound: CC[C@]1(O)C[C@H]2CN(CCc3c([nH]c4ccccc34)[C@@](C(=O)OC)(c3cc4c(cc3OC)N(C=O)[C@H]3[C@@](O)(C(=O)OC)[C@H](OC(C)=O)[C@]5(CC)C=CCN6CC[C@]43[C@@H]65)C2)C1 [vincristine, leurocristine]
found active in the treatment of experimental malignancies in animals [1]: active

Compound: leurosidine
found active in the treatment of experimental malignancies in animals [1]: active
